{"source": "paper PMC10126264", "about": "“Synergistic effect and antibiofilm activity of the antimicrobial peptide K11 with conventional antibiotics against multidrug-resistant and extensively drug-resistant Klebsiella pneumoniae” (Frontiers in Cellular and Infection Microbiology, 2023)", "key": {"[1]": {"test_system": "MDR/XDR K. pneumoniae clinical isolates", "assay": "Antimicrobial susceptibility testing, disk diffusion (CLSI)", "format": "cell-based, Klebsiella pneumoniae", "conditions": "all fifteen isolates, CLSI guidelines", "procedure": "(§1) In this study, fifteen non-duplicate clinical isolates of MDR/XDR K. pneumoniae were obtained from the bacterial repository of the Division of Infectious Diseases and Tropical Medicine, Department of Medicine, Faculty of Medicine Siriraj Hospital, Mahidol University. […] Antimicrobial susceptibility testing was also carried out by the disk diffusion method according to CLSI guidelines ([Clinical and Laboratory Standards Institute, 2021]). Furthermore, all isolates were tested for colistin resistance by broth microdilution based on CLSI recommendations. […] The MDR bacteria was defined as bacteria that are resistant to at least one agent in three or more antimicrobial categories, while the XDR bacteria refer to bacteria that are resistant to at least one agent in all but two or fewer antimicrobial categories based on laboratory results. E. coli ATCC 25922 was used as a reference control strain for susceptibility testing. Other reference strains, including K. pneumoniae ATCC 70063 and K. pneumoniae ATCC BAA-1706 (bla KPC […]), were used as control strains throughout the study."}, "[2]": {"test_system": "MDR/XDR K. pneumoniae clinical isolates", "assay": "microbe, parasite or virus in culture", "conditions": "Klebsiella pneumoniae", "procedure": "The ability of K11 to inhibit bacterial growth was determined by the broth microdilution method ([Clinical and Laboratory Standards Institute, 2018]). Briefly, a series of 2-fold dilutions of K11 were prepared from 1,024 to 2 µg/mL in cation-adjusted Mueller-Hinton broth (CAMHB), Then 50 µL of each peptide dilution was added to each well of polystyrene 96-well U-bottom microplates. The log-phase cultures were adjusted to 0.5 McFarland standard and diluted 1:100 in CAMHB to provide the density of 10^6 CFU/mL. Consequently, 50 µL of diluted bacterial suspension was added to wells containing 50 µL of peptide solution, followed by incubation for 20-24 h at 37°C. […] To evaluate MBC, a volume of 10 μL was taken from each well with no visible growth, inoculated on Mueller-Hinton agar (MHA) plates, and incubated at 37°C. The MBC was defined as the lowest concentration of antimicrobials that killed at least 99.9% of the initial inoculums ([Clinical and Laboratory Standards Institute, 1999])."}, "[3]": {"test_system": "K. pneumoniae ATCC BAA-1706", "format": "cell-based, Klebsiella pneumoniae", "conditions": "compared to day 1", "procedure": "The resistance development of K11, ciprofloxacin, and colistin was assessed according to the previously described protocol ([Pollard et al., 2012]). Briefly, MIC values for a K. pneumoniae ATCC BAA-1706 were first examined and recorded. […] This inoculum was subjected to another MIC assay. […] The process was repeated for 30 passages. The MIC values for K11 and antibiotics were recorded and plotted as the MIC fold change compared to day 1 of the experiment."}, "[4]": {"test_system": "MDR/XDR K. pneumoniae clinical isolates", "assay": "Colistin MIC, broth microdilution (CLSI)", "format": "cell-based, Klebsiella pneumoniae", "conditions": "all fifteen isolates, resistance defined as MIC ≥4 µg/mL", "procedure": "as §1"}, "[5]": {"conditions": "ref Witherell et al., 2021; cited from earlier work", "description": "K11 is a synthetic peptide derived from natural AMPs (cecropin A1, melittin, and maganin 2), composed of 20 amino acids ([…]-NH2). […] Moreover, K11 has also been successfully used in vivo as a topic hydrogel solution against Acinetobacter baumannii-infected wounds ([Rishi et al., 2018])."}}, "note": "Read-outs that look alike come from different tables or passages of the source."}
{"compound": "C[C@H]1[C@H](NC(=O)/C(=N\\OC(C)(C)C(=O)O)c2csc(N)n2)C(=O)N1S(=O)(=O)O", "note": "[aztreonam]", "values": [{"measurement": "antimicrobial susceptibility profile", "setting": "[1]", "value": "resistant"}]}
{"compound": "CO/N=C(\\C(=O)N[C@@H]1C(=O)N2C(C(=O)[O-])=C(C[N+]3(C)CCCC3)CS[C@H]12)c1csc(N)n1", "note": "[cefepime]", "values": [{"measurement": "antimicrobial susceptibility profile", "setting": "[1]", "value": "resistant"}]}
{"compound": "CO[C@@]1(NC(=O)Cc2cccs2)C(=O)N2C(C(=O)O)=C(COC(N)=O)CS[C@@H]21", "note": "[cefoxitin]", "values": [{"measurement": "antimicrobial susceptibility profile", "setting": "[1]", "value": "resistant"}]}
{"compound": "CC(C)(O/N=C(\\C(=O)N[C@@H]1C(=O)N2C(C(=O)[O-])=C(C[n+]3ccccc3)CS[C@H]12)c1csc(N)n1)C(=O)O", "note": "[ceftazidime]", "values": [{"measurement": "antimicrobial susceptibility profile", "setting": "[1]", "value": "resistant"}]}
{"compound": "CO/N=C(\\C(=O)N[C@@H]1C(=O)N2C(C(=O)O)=C(CSc3nc(=O)c(=O)[nH]n3C)CS[C@H]12)c1csc(N)n1", "note": "[ceftriaxone]", "values": [{"measurement": "antimicrobial susceptibility profile", "setting": "[1]", "value": "resistant"}]}
{"compound": "O=C(N[C@H](CO)[C@H](O)c1ccc([N+](=O)[O-])cc1)C(Cl)Cl", "note": "[chloramphenicol]", "values": [{"measurement": "antimicrobial susceptibility profile", "setting": "[1]", "value": "resistant"}, {"measurement": "MIC", "setting": "[2]", "value": 16, "unit": "µg/mL"}]}
{"compound": "O=C(O)c1cn(C2CC2)c2cc(N3CCNCC3)c(F)cc2c1=O", "note": "[ciprofloxacin]", "values": [{"measurement": "MIC fold change", "setting": "[3]; after 7 serial passages at 0.5×MIC", "value": 16, "unit": "fold"}, {"measurement": "MIC fold change", "setting": "[3]; after 12 passages at 0.5×MIC, maintained until 30 passages", "value": 64, "unit": "fold"}]}
{"compound": "C[C@@H](O)[C@H]1C(=O)N2C(C(=O)O)=C(S[C@@H]3CN[C@H](C(=O)Nc4cccc(C(=O)O)c4)C3)[C@H](C)[C@H]12", "note": "[ertapenem]", "values": [{"measurement": "antimicrobial susceptibility profile", "setting": "[1]", "value": "resistant"}]}
{"compound": "C[C@@H](O)[C@H]1C(=O)N2C(C(=O)O)=C(S[C@@H]3CN[C@H](C(=O)N(C)C)C3)[C@H](C)[C@H]12", "note": "[meropenem, reference compound]", "values": [{"measurement": "MIC", "setting": "[2]", "value": 64, "unit": "µg/mL"}]}
{"compound": "CO[C@H]1/C=C/O[C@@]2(C)Oc3c(C)c(O)c4c(O)c(c(/C=N/N5CCN(C)CC5)c(O)c4c3C2=O)NC(=O)/C(C)=C\\C=C\\[C@H](C)[C@H](O)[C@@H](C)[C@@H](O)[C@@H](C)[C@H](OC(C)=O)[C@@H]1C", "note": "[rifampicin]", "values": [{"measurement": "MIC", "setting": "[2]", "value": 32, "unit": "µg/mL"}]}
{"compound": "colistin [reference compound]", "values": [{"measurement": "MICs, all isolates", "setting": "[4]", "value": "≥ 4", "unit": "µg/mL"}, {"measurement": "concentration showing significant hemolytic activity", "setting": "[5]", "value": "more than 100 μg/mL"}]}
